Assay results reported in patent US10254283B2, “Biomarker for MELK activity and methods of using same” (Dana-Farber Cancer Institute, Inc., priority 2013, dated 2019).
Entries after “also recorded” stand apart in the source; their conditions may differ.

Tests used:
[1] = system: mitotic phosphorylation of Histone H3; test: Immunoblotting of mitotic Histone H3 phosphorylation in drug-treated cells; format: cell-based, human
Experimental: Mitotic cells were harvested through nocodazole-induced cell cycle arrest at prometaphase (200 ng/ml nocodazole, 20 hours). Cells were treated with the small chemical inhibitor of MELK, OTSSP167, for 30 min, at the indicated concentrations. Cell lysates were then prepared for immunoblotting.
(§1) For treatment with nocodazole, cells were refreshed with medium containing nocodazole (200 ng/ml). Twenty hours after treatment, floating mitotic cells were harvested by gental shake-off. For drug treatment, cells were seeded in multi-well plate, in the presence of OTSSP167 (ChemExpress, HY15512; 10 mM stock made in DMSO).
Cells were harvested and lysed with RIPA buffer (25 mM Tris, pH 7.4, 150 mM NaCl, 1% Nonidet P-40, 0.5% sodium deoxycholate, and 0.1% sodium dodecyl sulfate) supplemented with protease inhibitors cocktail (Roche) and phosphatase inhibitors cocktail (Thermo Scientific). Cleared lysates were analyzed for protein concentration using a BCA kit (Thermo Scientific). Equal amount of protein (10-20 μg) was resolved on SDS-PAGE, and was subsequently transferred onto a nitrocellulose or polyvinylidene difluoride membrane (Amersham). The membrane was blocked with 5% non-fat milk and was then incubated with primary antibodies overnight at 4° C. After washing, the membrane was incubated with fluorophore-conjugated secondary antibodies for 1 h at room temperature. […]

[2] = target: T1, recombinant MELK (kinase domain) (Homo sapiens, UniProt Q14680); test: In vitro kinase assay, recombinant MELK (kinase domain) with recombinant Histone H3, immunoblotting; format: biochemical; settings: 200 ng/ml final, 30 min at 30° C. (FIG. 12)
T1 construct: incubated without or with recombinant MELK (kinase domain) for 30 min. at 30° C
T1 sequence (Q14680 11-263 limits assumed): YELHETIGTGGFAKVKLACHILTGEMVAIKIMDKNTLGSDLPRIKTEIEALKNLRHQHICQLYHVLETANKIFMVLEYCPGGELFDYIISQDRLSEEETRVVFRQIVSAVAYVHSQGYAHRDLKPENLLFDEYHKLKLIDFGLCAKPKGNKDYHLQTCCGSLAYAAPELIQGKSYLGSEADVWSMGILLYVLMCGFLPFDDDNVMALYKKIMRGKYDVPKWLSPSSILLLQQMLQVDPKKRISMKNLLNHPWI
Experimental: Reactions were terminated by adding SDS sample buffer. Samples were subjected to immunoblotting using the indicated antibodies.
Flag-tagged eIF4B or Flag-eIF4B (S406A) was transfected into HEK293T cells (4 μg DNA for cells in one 60 mm dish). Thirty-six hours after transfection, cells were lysed with IP buffer (100 mM NaCl, 50 mM Tris, pH 7.5, 0.5% NP-40, 0.5% Sodium deoxycholate, supplemented with protease/phosphatase inhibitor cocktail). Lysates were cleared via incubating with anti-mouse IgG conjugated to magnetic beads (4° C., 30 min), and then immunoprecipitated with anti-Flag M2 magnetic beads (Sigma) (4° C., 120 min). The beads with bound antigens were washed 5 times with IP buffer. Beads during the last wash were aliquoted into 1.5 ml microcentrifuge tubes. After removal of IP buffer, the beads were washed once with 1× kinase buffer without ATP (5 mM Tris, pH 7.5, 5 mM-βglycerophosphate, 2 mM dithiothreitol, 0.1 mM Na3VO4, 10 mM MgCl2; Cell Signaling). After the wash, 40 μl 1× kinase buffer with 200 mM ATP was added to each tube, followed by 5 ul buffer without or with 500 ng recombinant MELK. The reaction was incubated at 30° C. for 30 min, and terminated by adding 40 ul 2×SDS sample buffer. The samples were then boiled and subjected to immunoblotting. […]

[3] = system: phosphorylation of eIF4B at S406; test: Immunoblotting of eIF4B S406 phosphorylation in drug-treated mitotic cells; format: cell-based, human
Experimental: MDA-MB-468 cells stably expressing tetracycline-inducible (tet-on) small hairpin MELK (shMELK) in the presence or absence of doxycycline were harvested through treatment of nocodazole, and subjected to immunoblotting. […] Mitotic MDA-MB-468 cells were treated for 30 min with vehicle or 200 nM OTSSP167, a MELK inhibitor (Chung et al. (2012) Oncotarget 3:1629-1640). Lysates were used for immunoblotting.
as §1
Cells were harvested and lysed with RIPA buffer (25 mM Tris, pH 7.4, 150 mM NaCl, 1% Nonidet P-40, 0.5% sodium deoxycholate, and 0.1% sodium dodecyl sulfate) supplemented with protease inhibitors cocktail (Roche) and phosphatase inhibitors cocktail (Thermo Scientific). Cleared lysates were analyzed for protein concentration using a BCA kit (Thermo Scientific). Equal amount of protein (10-20 μg) was resolved on SDS-PAGE, and was subsequently transferred onto a nitrocellulose or polyvinylidene difluoride membrane (Amersham). The membrane was blocked with 5% non-fat milk and was then incubated with primary antibodies overnight at 4° C. After washing, the membrane was incubated with fluorophore-conjugated secondary antibodies for 1 h at room temperature. The membrane was then washed and scanned with an Odyssey® Infrared scanner (Li-Cor Biosciences).
The following antibodies were used for immunoblotting or immunoprecipitation, MELK (Epitomics, 2916), p-eIF4B (S406) (Cell Signaling, 8151), p-eIF4B (S422) (Cell Signaling, 3591), eIF4B (Cell Signaling, 3592), c-Myc (Cell Signaling, 5605), XIAP (Cell Signaling, 2045), p-Akt (S473) (Cell Signaling, 4060), p-MAPK (T202/Y204) (Cell Signaling, 4370), cleaved PARP (Asp214) (Cell Signaling, 9541), Aurora A (Cell Signaling, 4718), Aurora B (Cell Signaling, 3094), p-Aurora A (T288)/Aurora B (T232)/Aurora C (T198) (Cell Signaling, 2914), p-Histone H3 (T3) (Cell Signaling, 13576), p-Histone H3 (S10) (Cell Signaling, 3377), p-Histone H3 (T11) (Cell Signaling, 9767), p-Histone H3 (S28) (Cell Signaling, 9713), ODC (Sigma, O1136), Vinculin (Sigma, V9131, alpha-tubulin (Sigma, T9016), anti-HA magnetic beads (Pierce, 88836), anti-Flag magnetic beads (Sigma, M8823). Secondary antibodies used were Alexa Fluor 680 goat anti-rabbit IgG (Invitrogen A-21109) and IRDye800-conjugated anti-mouse IgG (Rockland).

[4] = mitotic cells treated for 30 min, mTOR inhibitors versus MELK inhibitor (FIG. 6)

SMILES	phosphorylation of Histone H3 at Thr3/Ser10/Thr11 ([1]; MDA-MB-468 cells (text cites FIG. 12))	mitotic phosphorylation of Histone H3 at Thr-3, Ser-10 and Thr-11 ([1]; nocodazole-arrested mitotic cells, 30 min, indicated concentrations (FIG. 13))	MELK-induced phosphorylation of Histone H3 at Ser 10 in vitro [2]	phosphorylation of eIF4B at S406 ([3]; mitotic MDA-MB-468 cells, 200 nM, 30 min, vs vehicle (FIG. 5 right panels))	phosphorylation of eIF4B at S406 [3, 4]	phosphorylation of eIF4B at S406 ([3]; mitotic cells treated for 30 min, mTOR inhibitors versus MELK inhibitor (FIG. 6), listed as torins)
CC(=O)c1cnc2ccc(-c3cc(Cl)c(O)c(Cl)c3)nc2c1N[C@H]1CC[C@H](CN(C)C)CC1 [OTSSP167]	reduced phosphorylation of Histone H3 at Thr3/Ser10/Thr11	concentration-dependent reduction; also recorded: suppresses the mitotic phosphorylation of Histone H3 at Thr-3, Ser-10 and Thr-11	suppresses MELK-induced phosphorylation of Histone H3 at Ser 10	impairs the phosphorylation of eIF4B at S406	suppressed the phosphorylation of eIF4B at S406	–
CCC(=O)N1CCN(c2ccc(-n3c(=O)ccc4cnc5ccc(-c6cnc7ccccc7c6)cc5c43)cc2C(F)(F)F)CC1 [Torin 1]	–	–	–	–	not mTOR inhibition	do not produce the same results
